Results reported in US7456225B1, “Liver protection compounds of the cyclohexenone type from Antrodia camphorata” (Golden Biotechnology Corporation, priority 2007, dated 2008).

Key:
Type in all cases: in vivo, Sprague-Dawley (SD) rats
[1] = tested on: CCl4 induced liver injury in rats; assay: Serum indicators of liver function (ALT, AST, cholesterol); details: CCl4-treated rats, 8 weeks
Method: (§1) The animal model was performed with five-week-old Sprague-Dawley (SD) rats purchased from BioLasco Taiwan Co., Ltd. Healthy rats weighing 220-270 g were chosen for experiment after observing for 2 weeks in the laboratory animal room. The rats were randomly divided into 6 groups (12 rats/group): normal (gp. A); control groups including model control (gp. B) and positive control (gp. C, animals receiving silymarin); treatment groups including animals receiving 300 mg/kg of cyclohexenone (gp. D), 1000 mg/kg of cyclohexenone (gp. E), and 3000 mg/kg of cyclohexenone (gp. F), as indicated in Table 1. Only normal group was not poisoned with CCl4. The body weights were recorded to calculate the dosage. […] It helps to remove toxins from liver cells by either neutralizing the toxicity of toxic compounds or competing with the binding sites in liver. It is a potent antioxidant, protects the liver from free radicals. It has been widely studied for treating various types of liver injury in animals and clinical trials. The beneficial effects on liver protection have made silymarin a good medicine for liver diseases and a drug in positive control group for the animal model of liver injury.
(§2) Rats in normal group (group A) were fed with corn oil (Sigma chemical co.) by means of stomach tubes. Carbon tetrachloride (Shimakyu, Osaka, Japan) was administered to groups B to F via stomach tubes twice weekly (every Tuesday and Thursday afternoon) for 8 weeks, at a dose of 2 ml/kg of body weight, diluted with corn oil. Silymarin was prepared with saline in an amount of 200 mg/kg of body weight and was fed to rats of group C via a stomach tube. Cyclohexenone prepared from example 1 was mixed with saline, and fed in the amounts of 300 mg/kg, 1000 mg/kg and 3000 mg/kg of body weight to rats of group D to F via stomach tubes. The total feeding volume was estimated in the ratio of 10 ml/kg of body weight to groups C to F five days a week (every morning) for 8 weeks. The body weights of rats and the amounts of food intake in rats for each group were shown in FIG. 1 and FIG. 2, respectively.
All rats were sacrificed at the end of the 8th week of experiment, blood samples were collected from abdominal aorta for assessing liver biochemical parameters. Five ml of blood were transferred to a tube and centrifuged at 775×g for 15 min. 0.5 ml of serum was analyzed on an Express plus automatic clinical chemistry analyzer (Chiron diagnostics corporation, OH, USA) with commercial kits of ALT (Bayer diagnostics, Cat No. E36941), AST (Bayer diagnostics, Cat No. E37041) and cholesterol (Bayer diagnostics, Cat No. E33940). All values are expressed as mean ±SD, which were evaluated using One-way Analysis of Variance. Those with significant differences were further tested with the Least Significant Difference Test (LSD) or Student t-test to compare cyclohexenone treatment groups and normal groups, positive control and model groups. P<0.05 was selected as criterion for statistical significance in all cases.

[2] = Body weights of rats in CCl4 liver injury model; details: CCl4-treated rats, stomach tube, 8th week
Method: as §1, with “injury. Rats in normal group (group A) were fed with corn oil (Sigma chemical co.) by means of stomach tubes. Carbon tetrachloride (Shimakyu, Osaka, Japan) was administered to groups B to F via stomach tubes twice weekly (every Tuesday and Thursday afternoon) for 8 weeks, at a dose of 2 ml/kg of body weight, diluted with corn oil. Silymarin was prepared with saline in an amount of 200 mg/kg of body weight and was fed to rats of group C via a stomach tube. Cyclohexenone prepared from example 1 was mixed with saline, and fed in the amounts of 300 mg/kg, 1000 mg/kg and 3000 mg/kg of body weight to rats of group D to F via stomach tubes. The total feeding volume was estimated in the ratio of 10 ml/kg of body weight to groups C to F five days a week (every morning) for 8 weeks. The body weights of rats and the amounts of food intake in rats for each group were shown in FIG. 1 and FIG. 2, respectively. […]” for “injury.”

[3] = tested on: CCl4-induced liver injury in rats; assay: Weights of liver, kidney and spleen relative to body weight after CCl4-induced liver injury; details: CCl4-treated rats, 8 weeks
Method: as §1, §2
All rats were sacrificed at the end of the 8th week of experiment. The weights of liver, kidney and spleen were recovered and weighted and compared with the body weights to calculate the ratios and observe the effects of cyclohexenone from Antrodia camphorata to CCl4 treatment. All values are expressed as mean ±SD, which were evaluated using One-way Analysis of Variance. Those with significant differences were further tested with the Least Significant Difference Test (LSD) or Student t-test to compare cyclohexenone treatment groups and normal groups, positive control and model groups. P<0.05 was selected as criterion for statistical significance in all cases.

[4] = cyclohexenone 1000 mg/kg, listed as cyclohexenone

In the case of `COC1=C(OC)C(O)C(C/C=C(\C)CC/C=C(\C)CCC=C(C)C)C(C)C1=O` (centres unmarked) [Cyclohexenone from Antrodia camphorata, 4-hydroxy-2,3-dimethoxy-6-methyl-5(3,7,11-trimethyl-dodeca-2,6,10-trienyl)-cyclohex-2-enone], the ALT ([1]; cyclohexenone 300 mg/kg) is reported as 226.6 ± 138.7 a U/L, the AST ([1]; cyclohexenone 300 mg/kg) is reported as 323.4 ± 189.0 U/L and the Cholesterol ([1]; cyclohexenone 300 mg/kg) is reported as 63.7 ± 15.1 mg/dL. It also gave an ALT ([1]; cyclohexenone 1000 mg/kg) of 181.7 ± 78.4 a U/L, an AST ([1]; cyclohexenone 1000 mg/kg) of 283.2 ± 144.2 U/L and a Cholesterol ([1]; cyclohexenone 1000 mg/kg) of 69.6 ± 14.8 mg/dL. For the same compound, the ALT [1, 4] was 181.7±78.4 U/L, the AST [1, 4] was 283.2±144.2 U/L and the ALT ([1]; cyclohexenone 3000 mg/kg) was 206.0 ± 98.4 a U/L. For the same compound, the AST ([1]; cyclohexenone 3000 mg/kg) was 311.7 ± 99.6 U/L, the Cholesterol ([1]; cyclohexenone 3000 mg/kg) was 62.1 ± 16.2 mg/dL and the body weight ([2]; cyclohexenone 300 mg/kg) was 386.6 g. For the same compound, the body weight ([2]; cyclohexenone 1000 mg/kg) was 365.1 g, the body weight ([2]; cyclohexenone 3000 mg/kg) was 355.0 g and the “kidney to body weight ratio” value ([3]; cyclohexenone 300 mg/kg) was 0.68 ± 0.06 %. For the same compound, the “liver to body weight ratio” value ([3]; cyclohexenone 300 mg/kg) was 3.29 ± 0.35%, the “spleen to body weight ratio” value ([3]; cyclohexenone 300 mg/kg) was 0.20 ± 0.05 % and the “kidney to body weight ratio” value ([3]; cyclohexenone 1000 mg/kg) was 0.69 ± 0.13%. The “liver to body weight ratio” value ([3]; cyclohexenone 1000 mg/kg) was 3.20 ± 0.47 %, the “spleen to body weight ratio” value ([3]; cyclohexenone 1000 mg/kg) was 0.22 ± 0.06 % and the “kidney to body weight ratio” value ([3]; cyclohexenone 3000 mg/kg) was 0.73 ± 0.08 %. The “liver to body weight ratio” value ([3]; cyclohexenone 3000 mg/kg) was 3.65 ± 0.53 % and the “spleen to body weight ratio” value ([3]; cyclohexenone 3000 mg/kg) was 0.30 ± 0.10 %.
